Source: paper PMC7729281 (Biochemistry, 2020)

Tested on: human platelets
Test: Ex vivo platelet incubation and lipidomics
Assay type: cell-based
Settings: human platelets + DHA, with inhibitor; data not shown

COc1cccc(CNc2ccc(S(=O)(=O)Nc3nc4ccccc4s3)cc2)c1O [ML355]
reduction of 14S-HDHA and 11S-HDHA production: approximately 70%
